Reference: patent US9453026B2, “ACC inhibitors and uses thereof” (Gilead Apollo, Inc., priority 2011, dated 2016)

Tests used:
ACC1 = ACC1 (Homo sapiens, UniProt Q13085); assay: In vitro ACC1 inhibition assay (ADP-Glo); format: biochemical
Procedure, shortened: (§1)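 Enzyme (human ACC1 or ACC2) and compound, serially diluted 1:3 over 11 points from a 600 uM DMSO stock, were preincubated 15 min before substrate addition.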

ACC2 = ACC2 (Homo sapiens, UniProt O00763); assay: In vitro ACC2 inhibition assay (ADP-Glo); format: biochemical
Procedure, shortened: as §1

fatty acid synthesis = assay: In Vivo Fatty Acid Synthesis Study ([C14]-acetate incorporated into rat liver tissue); conditions: oral, FIG. 8 and FIG. 16
Method: Compounds of the present invention were also assayed in an In Vivo Fatty Acid Synthesis Study as described by Harwood et al. “Isozyme-nonselective N-Substituted Bipiperidylcarboxamide Acetyl-CoA Carboxylase Inhibitors Reduce Tissue Malonyl-CoA Concentrations, Inhibit Fatty Acid Synthesis, and Increase Fatty Acid Oxidation in Cultured Cells and in Experimental Animals” Journal of Biological Chemistry (2008) 278, 37099-37111. An exemplary procedure for the assay, which measures the amount of radioactive [C^14]-acetate incorporated into rat liver tissue, follows.
Animals given food ad water ad libitum were treated orally at a volume of 1.0 mL/200 g body weight (rat) with either an aqueous solution containing 0.5% methylcellulose (vehicle), or an aqueous solution containing 0.5% methylcellulose plus test compound. One to four hours after compound administration, animals received an intraperitoneal injection of 0.5 mL of [C^14]-acetate (64 uCi/mL; […]). […] The pooled organic fractions were transferred to liquid scintillation vials, dried under nitrogen, dissolved in 7 mL of Aquasol liquid scintillation fluid, and assessed for radioactivity using a Beckman 6500 liquid scintillation counter. Results were recorded as disintigrations per minute (DPM) per milligram of tissue.

[1] = Respiratory Quotient Measurement Assay; format: in vivo, Sprague-Dawley rats; conditions: rats, FIG. 9 and FIG. 10
Method: Compounds of the present invention were also assayed in a Respiratory Quotient Measurement Assay, as described by Harwood et al. “Isozyme-nonselective N-Substituted Bipiperidylcarboxamide Acetyl-CoA Carboxylase Inhibitors Reduce Tissue Malonyl-CoA Concentrations, Inhibit Fatty Acid Synthesis, and Increase Fatty Acid Oxidation in Cultured Cells and in Experimental Animals” Journal of Biological Chemistry (2008) 278, 37099-37111. An exemplary procedure for the assay, which measures the ratio of carbon dioxide production to oxygen consumption in rats, follows.
Male Sprague-Dawley rats (350-400 g) housed under standard laboratory conditions, either fed chow, fasted, or fasted and refed a diet high in sucrose for 2 days prior to experimentation were removed from their home cages, weighed, and placed into sealed chambers (43″43″10 cm) of the calorimeter (one rat per chamber). The chambers were placed in activity monitors. The calorimeter was calibrated before each use, air flow rate was adjusted to 1.6 liters/min, and the system settling and sampling times were set to 60 and 15 s, respectively. Base-line oxygen consumption, CO2 production, and ambulatory activity were measured every 10 min for up to 3 h before treatment. […]

Sequence of ACC2 (O00763 whole entry, species assumed): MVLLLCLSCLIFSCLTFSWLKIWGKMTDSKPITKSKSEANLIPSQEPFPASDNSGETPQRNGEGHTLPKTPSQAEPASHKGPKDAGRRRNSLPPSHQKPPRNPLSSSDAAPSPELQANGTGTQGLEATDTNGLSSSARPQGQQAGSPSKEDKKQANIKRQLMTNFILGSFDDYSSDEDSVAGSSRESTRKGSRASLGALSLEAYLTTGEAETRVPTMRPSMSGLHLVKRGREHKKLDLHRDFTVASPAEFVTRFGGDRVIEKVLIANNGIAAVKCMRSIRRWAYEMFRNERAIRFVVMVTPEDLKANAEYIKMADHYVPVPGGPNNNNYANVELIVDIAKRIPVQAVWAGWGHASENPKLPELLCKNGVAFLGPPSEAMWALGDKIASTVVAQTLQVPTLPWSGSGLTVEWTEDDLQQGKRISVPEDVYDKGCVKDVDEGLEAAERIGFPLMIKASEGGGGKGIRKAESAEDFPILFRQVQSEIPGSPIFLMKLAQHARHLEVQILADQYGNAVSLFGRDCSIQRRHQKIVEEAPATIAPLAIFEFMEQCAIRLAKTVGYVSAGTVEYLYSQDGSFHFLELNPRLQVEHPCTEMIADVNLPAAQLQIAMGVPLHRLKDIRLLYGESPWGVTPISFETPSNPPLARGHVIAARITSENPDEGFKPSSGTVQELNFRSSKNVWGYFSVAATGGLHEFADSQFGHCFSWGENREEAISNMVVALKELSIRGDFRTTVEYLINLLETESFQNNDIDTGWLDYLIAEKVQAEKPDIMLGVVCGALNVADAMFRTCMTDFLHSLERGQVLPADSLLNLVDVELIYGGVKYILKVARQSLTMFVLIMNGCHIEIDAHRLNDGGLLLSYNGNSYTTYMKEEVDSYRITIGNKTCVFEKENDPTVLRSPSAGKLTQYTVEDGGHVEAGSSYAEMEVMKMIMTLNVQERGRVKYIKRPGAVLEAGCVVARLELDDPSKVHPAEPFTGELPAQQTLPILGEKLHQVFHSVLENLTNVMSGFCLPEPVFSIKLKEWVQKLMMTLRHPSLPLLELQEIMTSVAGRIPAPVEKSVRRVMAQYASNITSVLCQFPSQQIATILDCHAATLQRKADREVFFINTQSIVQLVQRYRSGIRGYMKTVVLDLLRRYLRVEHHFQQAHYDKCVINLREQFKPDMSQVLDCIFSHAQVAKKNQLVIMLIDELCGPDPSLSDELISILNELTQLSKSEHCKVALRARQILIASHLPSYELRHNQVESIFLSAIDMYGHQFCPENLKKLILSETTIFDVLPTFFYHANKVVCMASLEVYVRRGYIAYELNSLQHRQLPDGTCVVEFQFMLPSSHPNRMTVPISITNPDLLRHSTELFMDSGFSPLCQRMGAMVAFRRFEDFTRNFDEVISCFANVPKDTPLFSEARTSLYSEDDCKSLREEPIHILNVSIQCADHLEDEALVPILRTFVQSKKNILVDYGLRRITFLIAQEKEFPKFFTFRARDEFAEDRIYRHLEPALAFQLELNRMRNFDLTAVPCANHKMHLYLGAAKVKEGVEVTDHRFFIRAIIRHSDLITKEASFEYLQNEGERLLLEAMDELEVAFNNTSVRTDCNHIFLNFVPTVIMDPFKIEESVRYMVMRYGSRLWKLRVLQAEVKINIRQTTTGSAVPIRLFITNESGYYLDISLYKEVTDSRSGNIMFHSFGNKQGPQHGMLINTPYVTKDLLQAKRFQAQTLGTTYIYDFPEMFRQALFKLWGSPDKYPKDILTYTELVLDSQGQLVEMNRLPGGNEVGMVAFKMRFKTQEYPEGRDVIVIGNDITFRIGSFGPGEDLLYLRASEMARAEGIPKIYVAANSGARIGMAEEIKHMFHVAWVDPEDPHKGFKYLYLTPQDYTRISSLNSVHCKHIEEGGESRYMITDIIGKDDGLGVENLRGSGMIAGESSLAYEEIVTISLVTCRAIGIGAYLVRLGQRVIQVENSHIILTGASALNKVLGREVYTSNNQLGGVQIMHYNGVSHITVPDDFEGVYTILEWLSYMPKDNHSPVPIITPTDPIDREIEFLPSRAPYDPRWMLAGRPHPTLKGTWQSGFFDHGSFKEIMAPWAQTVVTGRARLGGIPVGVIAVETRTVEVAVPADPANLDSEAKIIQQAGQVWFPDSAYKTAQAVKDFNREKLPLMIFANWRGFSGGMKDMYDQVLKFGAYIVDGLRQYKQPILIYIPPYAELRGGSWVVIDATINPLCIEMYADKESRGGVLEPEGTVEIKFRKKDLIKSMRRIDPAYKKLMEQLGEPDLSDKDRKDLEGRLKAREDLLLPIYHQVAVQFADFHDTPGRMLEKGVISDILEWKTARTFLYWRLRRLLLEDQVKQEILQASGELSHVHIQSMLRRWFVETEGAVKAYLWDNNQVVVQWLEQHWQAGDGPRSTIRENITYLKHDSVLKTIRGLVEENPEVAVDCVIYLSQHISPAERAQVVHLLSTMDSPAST

With COc1ccccc1[C@H](Cn1c(=O)n(C(C)(C)C(=O)O)c(=O)c2c(C)c(-c3ncco3)sc21)OC1CCOCC1 [I-181, 2-[1-[2-(2-methoxyphenyl)-2-(oxan-4-yloxy)ethyl]-5-methyl-6-(1,3-oxazol-2-yl)-2,4-dioxo-1H,2H,3H,4H-thieno[2,3-d]pyrimidin-3-yl]-2-methylpropanoic acid] the IC50 (ACC1) was < 100 nM, the IC50 (ACC2) was < 100 nM and the “ED50, fatty acid synthesis in rats” value (fatty acid synthesis) was “less than 0.3 mg/Kg body weight”. For the same compound, the “RQ relative to baseline” value [1] was 80-90 % of its baseline value and the “RQ, dose dependence” value ([1]; doses of 3, 10, 30 and 100 mg/kg) was “dose-dependent decreases in RQ”.
